Tests used:
[1] = biological target: T1, human HP4 receptor (Homo sapiens, UniProt P43116); assay: Competition of [3H]-PGE2 binding to membranes of HP4-transfected COS-7 cells; settings: [3H]-PGE2 5 nM, 100 μg protein/tube, 60 minutes at room temperature; FIG. 1A-1C
T1 construct: a plasmid with a complete open reading frame in the sense orientation was isolated; expressed in transfected cells; host or cells: COS-7 cells (ATCC CRL 1651), transient DEAE-dextran transfection with pBC/HP4
Method: (§1) Monolayers of COS-7 cells (ATCC CRL 1651; 70-80% confluent) were rinsed with Phosphate Buffered Saline (PBS, Ca/Mg-free) in 150×25 mm culture dishes. Ten ml transfection mix, consisting of 5 μ/ml plasmid DNA and 0.5 mg/ml DEAE-dextran in PBS, was added to each dish and cells were incubated for 30 min at 37° C. Nine ml of the solution was removed from each dish followed by the addition of 10 ml of […] chloroquine in Dulbecco's Modified Eagle Medium (DMEM)/5% fetal bovine serum (FBS). The cells were incubated for 2.5 hr at 37° C., the solution aspirated and 10 ml of 10% dimethyl sulfoxide (DMSO) in DMEM/5% FBS was added. After a 2.5 minute incubation at 37° C., the solution was aspirated and 30 ml DMEM/5% FBS was added. The cells were incubated at 37° C. with media changes at 24 and 48 hours. After 72 hours, the media was aspirated and the cells were scraped into cold TME buffer (50 mM Tris-HCl, pH 7.4, 10 mM MgCl2, 1 mM EDTA). The dishes were rinsed with cold TME buffer and the cells combined and placed on ice.
Transfected COS-7 cells were homogenized for 30 seconds at approximately 80% power with a Brinkman PT 10/35 Polytron homogenizer. The resulting homogenate was centrifuged at 19,000 rpm for 20 minutes at 4° C. using a Sorvall SS-34 rotor. The membrane pellet was resuspended in cold TME buffer (1 ml per original dish), frozen in liquid nitrogen and stored at −80° C.
Membrane pellets were then diluted in ice-cold 50 mM Tris-HCl buffer at pH 7.4 using a sonicator set at 50 watts. Membrane suspensions (100 μl) were then added to each assay tube to start the binding reaction. Final concentrations of the competition assay were as follows: [^3H]-PGE2, 5 nM; 100 μg protein/tube in a total volume of 200 μl. Increasing concentrations of compounds to be tested for competitively inhibiting binding were incubated for 60 minutes at room temperature. Contents were aspirated onto a presoaked ice-cold Whatman GF/B filter using a Brandel Cell Harvester and washed three times with ice-cold assay buffer. The filters were dried, placed in scintillation fluid and counted.

[2] = Nials et al., 1993; cited from earlier work
[3] = tested on: human neutrophils; settings: Nials et al., 1993; cited from earlier work
[4] = tested on: human myometrium; settings: Yeardley et al., 1992; cited from earlier work
[5] = biological target: T1, human HP4 receptor; assay: cAMP assay on HP4-transfected COS-7 cells; format: cell-based; settings: FIG. 2
Method: as §1
HP4-transfected COS-7 cells, prepared as described in Example 2, were cultured in DMEM containing 10% FCS, 100 units/ml penicillin, 100 μ/ml streptomycin. […] Cells were trypsinized and resuspended in a small volume of medium (2-3 ml), counted using a hemocytometer and diluted to 7-8×10^4 cells/ml (DMEM/5% FCS). […] The amount of cAMP was quantified as follows. […]

[6] = tested on: putative EP2 receptor; settings: cloned receptor of An et al. 1993 / Honda et al. 1993; cited from earlier work

T1 sequence (P43116 whole entry): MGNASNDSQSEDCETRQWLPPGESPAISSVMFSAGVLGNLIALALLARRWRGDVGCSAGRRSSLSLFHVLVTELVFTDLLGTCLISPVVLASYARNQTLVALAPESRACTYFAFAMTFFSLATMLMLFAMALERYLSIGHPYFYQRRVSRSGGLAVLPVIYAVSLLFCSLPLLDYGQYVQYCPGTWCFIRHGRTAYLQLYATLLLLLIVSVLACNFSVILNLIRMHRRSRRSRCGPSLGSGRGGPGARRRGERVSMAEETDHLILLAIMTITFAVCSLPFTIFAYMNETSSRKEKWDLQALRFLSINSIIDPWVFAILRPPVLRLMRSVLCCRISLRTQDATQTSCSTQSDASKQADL

competition of [3H]-PGE2 binding [1]	Structure (SMILES)	further results
exhibited competitive activity	CCCCC[C@H](O)/C=C/[C@H]1CCC(=O)[C@@H]1CCCCCCC(=O)O [11-deoxy PGE1]	
active	CCCCC(C)(C)[C@H](O)/C=C/[C@H]1[C@H](O)CC(=O)[C@@H]1C/C=C\CCCC(=O)O [16,16-dimethyl PGE2]	
exhibited competitive activity	C[C@@H](O)CCC[C@H](O)/C=C/[C@H]1[C@H](O)CC(=O)[C@@H]1C/C=C\CCCC(=O)O [19(R)-hydroxy PGE2]	
displaced	CCCCCC(O)c1ccc(C2CCC(=O)C2CCCCCCC(=O)O)cc1 (stereo not shown) [AH13205]	bronchodilation [2]: induce bronchodilation; release of the inflammatory mediator leukotriene B4 [3]: inhibit; spontaneous contraction of human myometrium [4]: inhibits
only slightly active	O=C(O)CCCCCC[C@H]1C(=O)CC[C@@H]1/C=C/[C@@H](O)COc1ccccc1 [MB 28767]	
only slightly active	CCCCC[C@H](O)/C=C/[C@H]1[C@H](O)CC(=O)[C@@H]1CCCCCCCO [PGE1-1-OH]	
strongest competitors	CCCCC[C@H](O)/C=C/[C@H]1[C@H](O)CC(=O)[C@@H]1CCCCCCC(=O)O [PGE1]	
strongest competitors	CCCCC[C@H](O)/C=C/[C@H]1[C@H](O)CC(=O)[C@@H]1C/C=C\CCCC(=O)O [PGE2, Prostaglandin E2]	cAMP levels ([5]; IBMX, 3 minutes at 37° C.): significantly increased; potency order of stimulation of cAMP formation ([5]; order PGE2, AH13205, butaprost, PGE1-1-OH): potently stimulate cAMP formation
inactive	CS(=O)(=O)NC(=O)CCC/C=C\C[C@H]1C(=O)C[C@@H](O)[C@@H]1/C=C/[C@@H](O)COc1ccccc1 [Sulprostone]	
displaced	CCCC1([C@H](O)C/C=C/[C@H]2[C@H](O)CC(=O)[C@@H]2CCCCCCC(=O)OC)CCC1 [butaprost]	activity at the putative EP2 receptor clone [6]: inactive

— patent US6911531B2, “Antibodies directed towards a novel human EP prostaglandin receptor” (Allergan, Inc., priority 1994, dated 2005)
